The results in this text go back to patent US6642178B2, “Adjuvant blend for enhancing efficacy of pesticides” (priority 2001, dated 2003).

One assay deals with green foxtail. The assay can be described thus: Green foxtail control with nicosulfuron as influenced by adjuvants (greenhouse). It is filed as in vivo. The settings on record: nicosulfuron 0.04 oz/A, no adjuvant; 2 WAT. An excerpt:
TABLE 3 includes the results of assessment made 2 WAT (weeks after treatment).

A further assay relates to large crabgrass. The assay can be described thus: Large crabgrass control with nicosulfuron as influenced by adjuvants (greenhouse). Type of assay: in vivo. To be noted: nicosulfuron 0.2 oz/A, no adjuvant, 3 WAT. An excerpt:
TABLE 2 includes the results of assessment made 3 WAT (weeks after treatment). Visible injury rating is on a scale 0 to 100% with 0% representing no visible injury and 100% complete kill.

For the compound `COc1cc(OC)nc(NC(=O)NS(=O)(=O)c2ncccc2C(=O)N(C)C)n1` [nicosulfuron], the “% fresh weight reduction” value with green foxtail worked out at 0%; with large crabgrass, 57%. Further, in the assay with large crabgrass (scale 0-100%), the “% visible injury” value came out at 31%.
